In patent publication US5972890A, “Synthetic peptides for arterial imaging” (New England Deaconess Hospital Corporation, priority 1995, dated 1999):
Ends that are not written are not given here.

Experiments:
[1] = Plasma decay of 125I-labelled synthetic peptide after ear vein injection; assay type: in vivo, rabbit; settings: for additional fall of plasma level over the next three hours: from one hour to four hours after injection
Description: Each labelled synthetic peptide preparation (containing, for example, 150 to 400 or more μCi of ^125 I-labelled peptide) in column elution buffer was injected into the marginal ear vein of the ballooned and healing New Zealand white rabbits or WHHL rabbits. Serial blood samples were obtained from the opposite ear during the ensuing 0-24 hours and were analyzed for radioactivity. The labelled peptide concentrations in the blood samples that were withdrawn over the first 10 minutes after injection were extrapolated to zero time to determine the time zero radioactivity in the calculation of average plasma radioactivity. […] Peptides SP15a, SP17, SP19a, SP21a, SP28, SP34a, and SP30 were cleared rapidly from the plasma with half-lives of about one minute or less; after one hour, the plasma levels were less than 10% of the injected dose and fell by an additional 1% over the next three hours. Peptides SP15a, SP17, SP21a, SP28, SP34a, and SP30 leveled off to a plasma level of 3-6%; peptide SP19a cleared more quickly and leveled off to a concentration of 0.3% (at four hours).

[2] = test system: anti-SP-4 antiserum; experiment: ELISA immunological cross-reactivity with anti-SP-4 antiserum; assay type: binding; settings: ELISA plates coated with peptide or LDL, rabbit polyclonal anti-SP-4 antiserum
Description: To produce anti-synthetic peptide antisera, purified synthetic peptide was dissolved in PBS, pH 7.4 at a concentration of 1 mg/ml. The peptide solution was mixed with an equal volume of complete Freund's adjuvant and vortexed thoroughly until a thick emulsion was produced. New Zealand White rabbits (Millbrook Farms, Amherst, Mass.) were injected with a total of 0.5 mg synthetic peptide administered subcutaneously in the four dorsal quadrants. The rabbits were given a boost (injected at the same sites) with 0.5 mg peptide emulsified in incomplete Freund's adjuvant 2-3 weeks later. Eight to ten days after the first boost, the animals were given a second, identical boost and were bled of 30 ml 8 to 10 days later.
To test for immunological cross-reactivity microtiter plates (Immulon II Dynatech Labs, Chantilly, Va.) were coated with the purified synthetic peptide or LDL by an overnight incubation at 4° C. with 100 ng peptide per well in 50 mM carbonate, pH 9.6, and blocked for nonspecific binding with an additional overnight incubation with phosphate-buffered saline, pH 7.4 (PBS), 1% bovine serum albumin (BSA). Control wells were coated with BSA alone. After washing twice with PBS, the wells were filled with serial dilutions (1:10 to 1:100,000 made in PBS, 3% BSA) of a rabbit polyclonal antibody generated against the synthetic peptide(s) and incubated for 45 minutes at room temperature. Following thorough washing (3× with PBS, 0.1% BSA), the wells were filled with a 1:2000 dilution of goat anti-rabbit IgG-horseradish peroxidase conjugate (Atlantic Antibodies, Scarborough, Me.). After a final wash, the wells were filled with 3,3'-5,5'-tetramethybenzidine (TMB) microwell peroxidase substrate (Kirkegaard and Perry Labs, Gaithersburg, Md.) and read at 650 nm every two minutes on an ELISA-5 automated plate reader (Physica, New York, N.Y.). Results (see, e.g., FIGS. 4 and 5) are expressed as the initial velocity of substrate conversion (change in OD650 /hr), which is determined by a linear regression of 15 data points per well. Each data point represents the average of three measured data points from the same plate, run at the same time.

| Substance | additional fall of plasma level over the next three hours [1] [%] | binding of anti-SP-4 antiserum to coated peptide or LDL [2] | plasma concentration at which peptide leveled off ([1]; at four hours) [%] |
| --- | --- | --- | --- |
| Ac-YAKFRETLEDTRDRMY-NH2 [SP-15a, CH3 CONH-Tyr-Ala-Lys-Phe-Arg-Glu-Thr-Leu-Glu-Asp-Thr-Arg-Asp-Arg-Met-Tyr-CONH2] | 1 |  |  |
| Ac-YKLALEAARLLADAEGAK-NH2 [SP-6A, CH3 CONH-Tyr-Lys-Leu-Ala-Leu-Glu-Ala-Ala-Arg-Leu-Leu-Ala-Asp-Ala-Glu-Gly-Ala-Lys-CONH2] |  | bind |  |
| Ac-YKLALEAARLLANAEGAK-NH2 [SP-8A, CH3 CONH-Tyr-Lys-Leu-Ala-Leu-Glu-Ala-Ala-Arg-Leu-Leu-Ala-Asn-Ala-Glu-Gly-Ala-Lys-CONH2] |  | bind |  |
| Ac-YRALVDTEFKVKQEAGAK-NH2 [SP-21a, CH3 CONH-Tyr-Arg-Ala-Leu-Val-Asp-Thr-Glu-Phe-Lys-Val-Lys-Gln-Glu-Ala-Gly-Ala-Lys-CONH2] | 1 |  |  |
| Ac-YRALVDTLK-NH2 [SP-14A, CH3 CONH-Tyr-Arg-Ala-Leu-Val-Asp-Thr-Leu-Lys-CONH2] |  | bind |  |
| Ac-YRALVDTLKFVTEQAKGA-NH2 [SP-19a, CH3 CONH-Tyr-Arg-Ala-Leu-Val-Asp-Thr-Leu-Lys-Phe-Val-Thr-Glu-Gln-Ala-Lys-Gly-Ala-CONH2] | 1 |  | 0.3 |
| Ac-YRALVDTLKFVTQAEGAK-NH2 [SP-4A, CH3 CONH-Tyr-Arg-Ala-Leu-Val-Asp-Thr-Leu-Lys-Phe-Val-Thr-Gln-Ala-Glu-Gly-Ala-Lys-CONH2] |  | bind |  |
| Ac-YRALVDYLKFVTQL-NH2 [SP-12A, CH3 CONH-Tyr-Arg-Ala-Leu-Val-Asp-Tyr-Leu-Lys-Phe-Val-Thr-Gln-Leu-CONH2] |  | bind |  |
| Ac-YVLDEFREKLNEELEALKQK-NH2 [SP-34a] | 1 |  |  |
| YAALDLNAVANKIADFEL-NH2 [SP-17, H2 N-Tyr-Ala-Ala-Leu-Asp-Leu-Asn-Ala-Val-Ala-Asn-Lys-Ile-Ala-Asp-Phe-Glu-Leu- CONH2] | 1 |  |  |
| YKLALEAARLLADAEGAK-NH2 [SP-6, H2 N-Tyr-Lys-Leu-Ala-Leu-Glu-Ala-Ala-Arg-Leu-Leu-Ala-Asp-Ala-Glu-Gly-Ala-Lys- CONH2] |  | bind |  |
| YKLALEAARLLANAEGAK-NH2 [SP-8, H2 N-Tyr-Lys-Leu-Ala-Leu-Glu-Ala-Ala-Arg-Leu-Leu-Ala-Asn-Ala-Glu-Gly-Ala-Lys- CONH2] |  | bind |  |
| YRALVDTLKFVTQAEGAK-NH2 [SP-4, NH2 -Tyr-Arg-Ala-Leu-Val-Asp-Thr-Leu-Lys-Phe-Val-Thr-Gln-Ala-Glu-Gly-Ala-Lys-CONH2] |  | bind |  |
| YVGVAPGVGVAPGVGVAPG [SP-28, H2 N-Tyr-Val-Gly-Val-Ala-Pro-Gly-Val-Gly-Val-Ala-Pro-Gly-Val-Gly-Val-Ala-Pro- Gly-OH] | 1 |  |  |
| YVPGVGVPGVGVPGVGVPGVG-NH2 [SP-30, H2 N-Tyr-Val-Pro-Gly-Val-Gly-Val-Pro-Gly-Val-Gly-Val-Pro-Gly-Val-Gly-Val-Pro- Gly-Val-Gly-CONH2] | 1 |  |  |
